Results reported in ChEMBL document CHEMBL3430912, “GSK Tres Cantos Anti-Kinetoplastid Screening (TCAKS) Data”.

Experiments:
[1] = system: Leishmania donovani; experiment: GSK_TCAKS: pIC50 Leishmania donovani viability assay using fluorescence intensity. Assay plates (1536-well) were prepared by adding 30nL per well of compound. For single shot assay, the final compound concentration was 5uM. […] Briefly, eGFP LdBOB axenic amastigotes were harvested, fixed and counted in a CASY cell counter (Roche-Applied Science). A final concentration of 1.5 * 10^5 cells per well were prepared in amastigote media containing 500 U/mL penicillin/streptomycin (Invitrogen) and 6uL was dispensed to each experimental well using a Multidrop Combi dispenser (Thermo Scientific). 6uL of assay media was dispensed to control columns used as reference for 100% compound response. Following incubation for 72 h at 37C, 5% CO2, 2 uL of resazurin was added to each well at a final concentration of 0.5 mM in phosphate buffered saline (PBS) with IGEPAL (Sigma-Aldrich), 0.05% (v/v).; format: functional, organism-based
[2] = GSK_TCAKS: pIC50 HepG2 human cell line viability assay using luminiscence. […] Seeding density was checked to ensure that new mono-layers were not more than 50% confluent at the time of harvesting. Cell suspension was added to 500 mL of the same medium at a final density of 1.2 * 10^5 cells/mL. This cell suspension was dispensed (25 uL, 3000 cells per well) into 384-well clear-bottom plates using a Multidrop Combi dispenser. Prior to addition of the cell suspension, the screening compounds (250 nL) were pre-dispensed into the plates with an Echo liquid handler. Plates were incubated for 48 h at 37C, 5% CO2. After incubation, plates equilibrated at room temperature for 30 min before proceeding to develop the luminescent signal. The signal developer, CellTiter-Glo Reagent, was allowed to equilibrate at room temperature for 30 min and added to the plates (25uL per well) using a Multidrop Combi dispenser. Plates were left for 10 min at room temperature for stabilization and then read using a ViewLux.; format: toxicity, cell-based
[3] = system: Trypanosoma cruzi; experiment: GSK_TCAKS: pIC50 Trypanosoma cruzi Imaging: Amastigotes/Cell. […] Cells were then washed once with PBS before infection. T. cruzi trypomastigotes, collected at days 5 to 8 after infection from LLC-MK2 parasite infected cultures, were allowed to swim out for 4h at 37C from a centrifuged pellet (2,500 rpm/10 min/room temperature). Trypomastigotes were then collected and counted in a CASY Cell Counter. Trypomastigotes, in supplemented DMEM, were added to H9c2 cultures in a multiplicity of infection of 1 and incubated for 18 h. Cells were washed once with PBS before incubation of the infected H9c2 monolayer with trypsin (Life-Technologies) to detach cells from the flask. Cells were counted in a CASY Cell Counter using a 150 um capillary and their density set at 5 * 10^4 cells per mL in supplemented assay DMEM. Infected H9c2 were dispensed into 384-well poly-lysine coated assay plates at 50uL per well using a Multidrop Combi dispenser. After seeding them, the plates were incubated at 37C, 5% CO2 for 72h. Cultures were then fixed and stained by addition of 50 uL of a solution containing 8% formaldehyde and 4 uM DRAQ5 DNA dye (BioStatus, UK) per well. […] Five images were collected per well for reliable statistical analysis. Automated image analysis was performed with a script developed on Acapella High Content Imaging and Analysis Software (PerkinElmer). Output: number of amastigotes per cell as infection level measurement.; format: functional, organism-based, Rattus norvegicus; settings: H9c2, 4 h
[4] = system: Trypanosoma brucei brucei; experiment: GSK_TCAKS: pIC50 Trypanosoma brucei viability assay using luminiscence. Assay plates (1536-well) were prepared. T. brucei cultures were harvested and counted in a CASY cell counter. A parasite suspension was prepared at a final concentration of 5 * 10^4 cells/mL in complete HMI9 medium and 6uL was dispensed to all wells containing compounds using a Multidrop Combi dispenser. 6uL of HMI9 media with 0.4% DMSO were dispensed to control columns. Plates were incubated for 24 h at 37C, 5% CO2 then tempered for 10 min at room temperature. ATP content was quantified by adding 4 uL of CellTiter-Glo Reagent (Promega) according to the manufacturer's instructions. Luminescence was measured using a ViewLux.; format: functional, organism-based; settings: Lister 427, CASY
[5] = system: Trypanosoma brucei brucei; experiment: GSK_TCAKS: pIC50 Trypanosoma brucei viability assay using fluorescence intensity. Assay plates (1536-well) were prepared by dispensing 25nL of compound solution per well using an Echo acoustic dispenser (Labcyte).; format: functional, organism-based; settings: Lister 427, 2 h
[6] = system: Trypanosoma cruzi; experiment: (§1) GSK_TCAKS: pIC50 Trypanosoma cruzi Imaging: Infected Cells. […] Cells were then washed once with PBS before infection. T. cruzi trypomastigotes, collected at days 5 to 8 after infection from LLC-MK2 parasite infected cultures, were allowed to swim out for 4h at 37C from a centrifuged pellet (2,500 rpm/10 min/room temperature). Trypomastigotes were then collected and counted in a CASY Cell Counter. Trypomastigotes, in supplemented DMEM, were added to H9c2 cultures in a multiplicity of infection of 1 and incubated for 18 h. Cells were washed once with PBS before incubation of the infected H9c2 monolayer with trypsin (Life-Technologies) to detach cells from the flask. Cells were counted in a CASY Cell Counter using a 150 um capillary and their density set at 5 * 10^4 cells per mL in supplemented assay DMEM. Infected H9c2 were dispensed into 384-well poly-lysine coated assay plates at 50uL per well using a Multidrop Combi dispenser. After seeding them, the plates were incubated at 37C, 5% CO2 for 72h. Cultures were then fixed and stained by addition of 50 uL of a solution containing 8% formaldehyde and 4 uM DRAQ5 DNA dye (BioStatus, UK) per well. […] Five images were collected per well for reliable statistical analysis. Automated image analysis was performed with a script developed on Acapella High Content Imaging and Analysis Software (PerkinElmer). Output: percentage of infected cells per well as a second infection marker.; format: functional, organism-based, Rattus norvegicus; settings: H9c2, 4 h
[7] = system: Leishmania donovani; experiment: GSK_TCAKS: pIC50 Leishmania donovani Imaging: Infected Macrophages. Assay plates (384-well) were prepared by adding 250nL of compound to each well. For single shot assay, the final compound concentration was 5 uM. […] Automated image analysis was performed with a script developed on Acapella High Content Imaging and Analysis Software (PerkinElmer). Output: Percent of infected macrophage cells were reported for each well.; format: functional, organism-based, Homo sapiens; settings: THP-1
[8] = target: Sterol 14-alpha demethylase (Trypanosoma cruzi (strain CL Brener), UniProt Q7Z1V1); experiment: GSK_TCAKS: pIC50 CYP51 from Trypanosoma cruzi.; format: functional
Sterol 14-alpha demethylase, sequence (Q7Z1V1 whole entry): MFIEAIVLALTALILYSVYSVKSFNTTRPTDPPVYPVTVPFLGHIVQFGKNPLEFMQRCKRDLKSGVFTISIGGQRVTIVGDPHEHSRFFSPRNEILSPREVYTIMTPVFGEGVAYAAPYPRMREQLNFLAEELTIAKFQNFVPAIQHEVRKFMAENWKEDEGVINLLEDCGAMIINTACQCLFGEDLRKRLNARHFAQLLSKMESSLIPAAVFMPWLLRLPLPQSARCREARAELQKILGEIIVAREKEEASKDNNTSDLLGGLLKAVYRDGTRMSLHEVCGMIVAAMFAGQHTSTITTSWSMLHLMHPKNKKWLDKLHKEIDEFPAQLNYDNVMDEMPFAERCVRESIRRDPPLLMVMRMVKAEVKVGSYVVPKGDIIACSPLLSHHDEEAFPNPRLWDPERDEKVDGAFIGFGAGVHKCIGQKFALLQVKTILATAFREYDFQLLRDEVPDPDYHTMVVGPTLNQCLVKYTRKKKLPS

[9] = system: Trypanosoma cruzi; experiment: GSK_TCAKS: pIC50 Trypanosoma cruzi viability assay using beta-GAL activity. This assay was run at single shot at 5uM compound concentration per well. The biological reagents consisted of NIH-3T3 host cells and trypomastigotes parasitic cells; both cell types were set to a 3.3 * 10^5 cells/mL dilution in assay DMEM by means of a CASY cell counter device using a 60um capillary. 6 uL of the mixture were dispensed per well (about 1 * 10^3 host-cells and 1 * 10^3 parasites) with a Multidrop Combi dispenser. […] In all wells, the percentage of DMSO never exceeded 0.5%. Plates incubated for four days at 37C, 5% CO2. The substrate used for the assay fluorescence intensity (FLINT) readout was resorufin-beta-D-galactopiranoside (Sigma-Aldrich) at 5uM per well. It was diluted in PBS supplemented with the soft detergent Igepal (Fluka).; format: functional, organism-based, Mus musculus; settings: Tulahuen, NIH3T3
[10] = system: Leishmania donovani; experiment: GSK_TCAKS: pIC50 Leishmania donovani Imaging: THP-1 Host Macrophages. Assay plates (384-well) were prepared by adding 250nL of compound to each well. For single shot assay, the final compound concentration was 5 uM. […] Automated image analysis was performed with a script developed on Acapella High Content Imaging and Analysis Software (PerkinElmer). Output: THP-1 cell count were reported for each well.; format: functional, organism-based, Homo sapiens
[11] = system: Leishmania donovani; experiment: GSK_TCAKS: pIC50 Leishmania donovani Imaging: Amastigotes/Macrophages. Assay plates (384-well) were prepared by adding 250nL of compound to each well. For single shot assay, the final compound concentration was 5 uM. […] Automated image analysis was performed with a script developed on Acapella High Content Imaging and Analysis Software (PerkinElmer). Output: Average number of amastigotes per macrophage cell were reported for each well.; format: functional, organism-based, Homo sapiens; settings: THP-1
[12] = system: Trypanosoma cruzi; experiment: as §1, with “H2C9” for “Trypanosoma cruzi”, “H9c2 Host Cardiomyocytes.” for “Infected Cells.”, “Number” for “percentage”, “H9c2 Host Cardiomyocytes nuclei to determine drug-related cytotoxicity.” for “infected cells per well as a second infection marker.”; format: functional, organism-based, Rattus norvegicus; settings: H9c2, 4 h

Row | SMILES | IC50 [1] [µM] | IC50 at 48 h [2] [µM] | IC50 [3] [µM] | IC50 [4] [µM] | IC50 [5] [µM] | IC50 [6] [µM] | IC50 [7] [µM] | IC50 [8] [µM] | IC50 [9] [µM] | IC50 [10] [µM] | IC50 [11] [µM] | IC50 [12] [µM]
1 | O=C(Nc1nc(-c2ccccn2)cs1)c1ccc(S(=O)(=O)N2CCCCC2)cc1 | 0.631 | 63.1 | 0.398 | 0.631 | 0.398 | 0.631 | 1.26 | 6.31 | 0.631 | 12.6 | 1 | 2.51
2 | CC(C)(C)Nc1nc(-c2ccccn2)nc2ccccc12 | 6.31 | 20 | 1.26 | 6.31 | 6.31 | 2 | 1.58 | > 100 | 1.26 | 15.8 | 1.26 | 0.316
3 | COc1cnc2ccc(=O)n(CCN3CCC(NC/C=C/c4cc(F)ccc4F)CC3)c2c1 | 5.01 | 63.1 | 0.01 | 0.794 | 0.398 | 0.02 | 5.01 | 15.8 | 0.0158 | 39.8 | 2 | 15.8
4 | CC(C)(C)C(=O)NCCc1csc(-c2ccc(F)cc2)n1 | > 50.1 | > 100 | 2.51 | 0.794 | 0.631 | 3.16 | > 50.1 | 79.4 | 3.55 | > 50.1 | > 50.1 | > 50.1
5 | COc1cccc(NS(=O)(=O)c2ccc3ncc(C(=O)NCCC(C)C)c(O)c3c2)c1 | > 50.1 | 31.6 | 15.8 | 0.631 | 0.316 | 31.6 | > 50.1 | 6.31 | > 50.1 | > 50.1 | > 50.1 | 12.6
6 | COc1ccc(CN2C(=O)C(O)(CC(=O)c3ccncc3)c3cc(Br)ccc32)cc1OC (configuration not stated) | 39.8 | 39.8 | 12.6 | 0.631 | 0.631 | 25.1 | 25.1 | 0.501 | 2.51 | 39.8 | 20 | 2
7 | c1ccc(-c2nc(NCc3ccco3)c3ccccc3n2)nc1 | 3.16 | > 100 | 3.98 | 6.31 | > 39.8 | 3.16 | 2.51 | > 100 | 6.31 | 31.6 | 2.51 | 2
8 | O=C(Nc1nc2ccccc2[nH]1)c1c(O)c2cccc3c2n(c1=O)CC3 | 2.51 | 10 | 25.1 | 20 | 15.8 | 15.8 | 2 | > 100 | 20 | > 50.1 | 1 | 10
9 | CCN(CC)c1nc(Nc2ccncc2)nc2ccccc12 | 0.794 | 50.1 | 0.00501 | 5.01 | 2.51 | 0.0794 | 6.31 | > 100 | 0.126 | 25.1 | 2 | 7.94
10 | Cc1ccccc1NS(=O)(=O)c1ccc2[nH]cc(C(=O)NC3CCCC(C)C3C)c(=O)c2c1 (configuration not stated) | 25.1 | 39.8 | 3.16 | 0.631 | 0.316 | 6.31 | 15.8 | 5.01 | 5.01 | 12.6 | 15.8 | 6.31
11 | COc1cccc(CN(C)Cc2nc(N)c3c(C)c(C)sc3n2)c1 | 31.6 | 39.8 | 15.8 | 3.98 | 5.01 | 15.8 | 5.01 | > 100 | 6.31 | 31.6 | 3.16 | > 50.1
